Patent publication US20140018431A1 (priority 2007, published 2014)

How the values were obtained:
[1] = system: lung myeloid dendritic cells; details: literature (Idzko, 2007), cited from earlier work
Ang-2 (angiopoetin-2) = test: Serum Ang-2 biomarker, patients with PAH, 12 weeks of treatment; type: in vivo, human; details: treatment for 12 weeks
Method: (§1) In addition, treatment with treprostinil is shown to have positive outcome in the six minute walk test described above.
(§2) 44 patients with PAH received study drug (Remodulin or placebo). 30 patients received Remodulin and 14 received placebo. A 12-week trial was conducted. The mean dose of Remodulin received was 72.5 ng/kg/min at Week 12 (compared to 80.0 ng/kg/min placebo-equivalent). Remodulin produced an 93.0 meter median improvement in the six-minute walk compared to placebo, Hodges-Lehmann estimate, with a 95% CI of 7.0 to 187.0 (p=0.0077) from nonparametric ANCOVA.
(§3) Baseline patients with PAH appeared to have higher-than-normal levels of MMP-9, Ang-2, VEG-F, and PDGF (matrix metalloproteinase 9, angiopoetin-2, vascular endothelium-derived growth factor, and platelet-derived growth factor, respectively).

[2] = system: MMP-9 (matrix metalloproteinase 9); test: MMP-9 biomarker, patients with PAH, 12 weeks of treatment; type: in vivo, human; details: treatment for 12 weeks
Method: as §1, §2, §3
Further, there was a statistically significant correlation between the degree of decrease in Ang-2 and the degree of improvement in the six-minute walk test.

[3] = type: in vivo, human; details: patients with PAH, 12-week trial
Method: The effect of treprostinil (in the form of Remodulin or inhaled treprostinil) on patients is analyzed using the 6-minute walk test with Borg dyspnea score, a standard assessment of exercise capacity and breathlessness in patients with lung disease. See Guyatt, G. Sullivan, M. et al. (Canada Medical Assoc. J. Vol. 132, 1985). The Six-Minute Walk corresponds closely to the demands of everyday activity and is a safe and simple measurement of functional exercise capacity for clinical trials in patients.
The area used for the Six-Minute Walk test should be pre-measured at a minimum of 108 feet (33 meters) in length and at least 6 to 10 feet (2 to 3 meters) in width. The length should be marked with half-yard (0.5 meter) gradations. The area should be well ventilated with air temperature controlled at 20 to 23° C. ([…].).
The tester may be at the starting end of the corridor or at the midpoint of the corridor with a stop-watch. Intermittent rest periods are allowed if the patient can no longer continue. If the patient needs to rest briefly, he/she may stand or sit and then begin again when he/she is sufficiently rested but the clock will continue to run. At the end of six minutes, the tester will call “stop” while simultaneously stopping the watch and then measure the distance walked. The Borg Dyspnea Rating is then administered.
No other instruction or encouragement are given during the test. Eye contact with the patient should be avoided during the test. Following the walk, the person administering the test obtains a rating of dyspnea using the Borg Scale. The person uses the following dialogue:
“I would like to use the following scale to indicate the maximal shortness of breath you had during the walk test (indicate the Borg Scale). […]

[4] = system: PDGF (platelet-derived growth factor); test: PDGF biomarker, patients with PAH, 12 weeks of treatment; type: in vivo, human; details: treatment for 12 weeks
Method: as §1, §2, §3

[5] = system: VEG-F (vascular endothelium-derived growth factor); test: Serum VEG-F biomarker, patients with PAH, 12 weeks of treatment; type: in vivo, human; details: treatment for 12 weeks
Method: as §1, §2, §3

airway smooth muscle = details: literature (Belvisi, 1998); cited from earlier work

Q: With `CC#CCC(C)[C@H](O)/C=C/[C@@H]1[C@H]2C/C(=C/CCCC(=O)O)C[C@H]2C[C@H]1O` (stereo partly shown) [iloprost] as the molecule, how does the “anti-inflammatory effects in a mouse model of asthma” value [1] read?
A: anti-inflammatory effects

Q: And the “induction of allergen-specific Th2 response in mediastinal lymph nodes” value ([1]; mouse model of asthma)?
A: abolishing the induction

Q: What does the source list for `CCCCC[C@H](O)CC[C@@H]1[C@H]2Cc3cccc(OCC(=O)[O-])c3C[C@H]2C[C@H]1O.[Na+]` [Remodulin]?
A: serum Ang-2 (Ang-2 (angiopoetin-2)): significantly decreased; degree of change in MMP-9 [2]: not significant; median improvement in the six-minute walk compared to placebo, Hodges-Lehmann estimate ([3]; mean dose 72.5 ng/kg/min at Week 12, 95% CI of 7.0 to 187.0, p=0.0077, nonparametric ANCOVA): 93.0 meter; Borg Dyspnea score, median improvement over placebo ([3]; p=0.23): 2.0; combined ranking of 6MW/Borg Score Index ([3]; vs placebo, p=0.0023): significantly improved; PDGF [4]: strong trend toward decreased; serum VEG-F [5]: significantly decreased

Q: For `CCCCC[C@H](O)/C=C/[C@@H]1[C@H]2C/C(=C/CCCC(=O)O)O[C@H]2C[C@H]1O` [PGI2], which “effect on airway smooth muscle proliferation” value (airway smooth muscle) is on record?
A: antiproliferative effect
